From US10501516B2, “Peptide compound” (TAKEDA PHARMACEUTICAL COMPANY LIMITED, priority 2016, dated 2019)
Square brackets hold non-standard residues; d marks the D form. Side chains are listed from the residue outwards. Peptide text beside a SMILES is read from it. * marks the point of attachment. NMeY = CN[C@@H](Cc1ccc(O)cc1)C(=O)O; Palmitoyl = CCCCCCCCCCCCCCCC(=O)*; αMeF = C[C@](N)(Cc1ccccc1)C(=O)O; Iva = CC[C@](C)(N)C(=O)O; Aib = CC(C)(N)C(=O)O

What was measured:
cynomolgus monkeys = test: Food intake and emesis study in cynomolgus monkeys; assay type: in vivo, cynomolgus monkey
Procedure: One male and one female cynomolgus monkeys (age: 4 years old, body weight: 3.9 kg in male, 2.7 kg in female) were used. The monkeys were housed in individual cages with a 12 hr:12 hr light-dark schedule at 22-27° C., and given 100 g of pellet diet (Oriental Yeast Co. Ltd) once daily. The diet was supplied after completion of the clinical observation at 8 hour post dose on the days of dosing. On other days during the experimental period, the diet was supplied each day after the completion of examinations and the remaining diet was withdrawn on the following morning. P41 was dissolved in 0.5 w/v % mannitol solution. The compound at 0.05 mg/kg was subcutaneously administered at day 1 and then at 0.15 mg/kg at day 4. Body weight was measured once during the pre-dosing period and on day 1, 4, 8, 11 and 15. Food intake was measured every day during the experimental period.

Male ob/ob mice = test: Repeated dosing study in ob/ob mice; assay type: in vivo, mouse; conditions: for ALT / AST / TC / TG: plasma, mean ± SD
Procedure: Male ob/ob mice (9 weeks old) were divided into the groups based on the data of body weight, food intake, and plasma parameters. Vehicle or P41 was subcutaneously administered once a day for 4 weeks. Body weight and food intake were monitored during the study. Compounds were dissolved in 10% DMSO/saline. After the study, blood was collected and plasma parameters were measured. At day 29, the animals were sacrificed.
Plasma glucose, triglyceride (TG), total cholesterol (TC), aspartate aminotransferase (AST), and alanine aminotransferase (ALT) were analyzed by Autoanalyzer 7180 (Hitachi High-Technologies Corporation, Japan). Blood glycated hemoglobin (GHb) was measured with the automated GHb analyzers (HLC-723G8, Tosoh, Tokyo, Japan). Liver triglyceride content was measured as follows: a piece of tissue was homogenized in saline and lipid was extracted by the addition of hexane:isopropanol (3:2) solution. The lipid phase was collected, dried and then dissolved in isopropanol. The concentration of triglyceride was measured by Triglyceride E-test (Wako Pure Chemical Industries, Ltd, Japan) and triglyceride content per g liver was calculated. Plasma insulin was measured with ELISA Assay kit (Shibayagi Co. Ltd., Japan).

Male C57BL/6J mice = test: Conditioned taste aversion (CTA) test; assay type: in vivo, mouse; conditions: 3 nmol/kg s.c.
Procedure: Male C57BL/6J (9 weeks old) mice were habituated to time-restricted bottled water supply (2-3 hours/day) and subcutaneous injection of saline for 1 week. Mice were divided into the groups based on the data of body weight and water intake. CTA test was performed according to the following protocol. On day 1 for the first conditioning, mice were given 0.1% sodium saccharin solution to drink for 3 hours. Ten-minutes after supplying the saccharin solution, vehicles, liraglutides and P41 were administered subcutaneously. […] On day 2, mice were given tap water for 3 hours and subcutaneous injection of saline after water supply. On day 3, the second conditioning was conducted as the same procedure used on day 1. On day 4, mice were given tap water for 3 hours without subcutaneous injection. On day 5, both tap water and saccharin solution were supplied to mice for 3 hours without subcutaneous injection and the intake of each fluid was measured. Saccharin preference ratio (%) was calculated according to the following equation: {(amount of saccharin intake)/(amount of saccharin intake+amount of water intake)}×100.

[1] = 10, 30 and 100 nmol/kg s.c. once a day for 4 weeks
[2] = 10 nmol/kg s.c. once a day for 4 weeks
[3] = 30 nmol/kg s.c. once a day for 4 weeks
[4] = 100 nmol/kg s.c. once a day for 4 weeks

With `CCCCCCCCCCCCCCCC(=O)NCC(=O)NCC(=O)NCC(=O)NCC(=O)NCCCC[C@H](NC(=O)[C@H](CC(=O)O)NC(=O)[C@H](CO)NC(=O)[C@@H](NC(=O)[C@](C)(Cc1ccccc1)NC(=O)[C@@H](NC(=O)CNC(=O)[C@H](CCC(=O)O)NC(=O)C(C)(C)NC(=O)[C@H](Cc1ccc(O)cc1)NC)[C@@H](C)O)[C@@H](C)O)C(=O)N[C@@H](CO)C(=O)N[C@H](C(=O)NC(C)(C)C(=O)N[C@@H](CC(C)C)C(=O)N[C@@H](CCC(=O)O)C(=O)N[C@@H](CCCCN)C(=O)N[C@@H](CCC(N)=O)C(=O)N[C@@H](CCCNC(=N)N)C(=O)N[C@@H](CCC(N)=O)C(=O)N[C@@](C)(CC)C(=O)N[C@@H](CCC(=O)O)C(=O)N[C@@H](Cc1ccccc1)C(=O)N[C@H](C(=O)N[C@@H](CCCNC(=N)N)C(=O)N[C@@H](Cc1c[nH]cn1)C(=O)N[C@@H](CC(C)C)C(=O)N[C@@H](CC(C)C)C(=O)N[C@@H](CC(N)=O)C(=O)N[C@@H](CCCCN)C(=O)NC(C)(C)C(=O)N[C@H](C(=O)N[C@@H](CCCNC(=N)N)C(=O)N[C@@H](CCC(N)=O)C(=O)N[C@@H](CCCNC(=N)N)C(=O)N[C@@H](Cc1ccc(O)cc1)C(N)=O)[C@@H](C)O)C(C)C)[C@@H](C)CC` [Example 41] (H-[NMeY][Aib]EGT[αMeF]TSDK([Gly-Gly-Gly-Gly-Palmitoyl])SI[Aib]LEKQRQ[Iva]EFVRHLLNK[Aib]TRQRY-NH2) the food consumption (cynomolgus monkeys; 0.05 and 0.15 mg/kg (ca. 10 and 30 nmol/kg) s.c., one male and one female) was “almost completely abolished food consumption”, the “duration of inhibitory effect of food consumption” value (cynomolgus monkeys; 0.05 and 0.15 mg/kg s.c.) was ≥ 2 days and the vomiting (cynomolgus monkeys; 0.05 and 0.15 mg/kg s.c., throughout the experimental period) was “did not induce vomiting”. The GHb (Male ob/ob mice; [1]) was “significant decrease”, the “body weight and cumulative food intake” value (Male ob/ob mice; [1]) was “dose-dependent body weight and cumulative food intake reduction” and the plasma glucose levels (Male ob/ob mice; [1]) was “significant decrease”. The plasma insulin levels (Male ob/ob mice; [1]) was “Dose-dependent decrease”, the “liver and mesenteric, epididymal, and inguinal adipose tissue weight, and liver TG content” value (Male ob/ob mice; 10, 30 and 100 nmol/kg s.c. once a day for 4 weeks, dose-dependent) was “decreased” and the ALT (Male ob/ob mice; [2]) was 50.6 ± 23.8 U/L. It also gave an AST (Male ob/ob mice; [2]) of 82.3 ± 25.0 U/L, a TC (Male ob/ob mice; [2]) of 137.0 ± 12.7 mg/dL and a TG (Male ob/ob mice; [2]) of 52.4 ± 13.0 mg/dL. The ALT (Male ob/ob mice; [3]) was 38.3 ± 9.3 U/L, the AST (Male ob/ob mice; [3]) was 83.5 ± 21.5 U/L and the TG (Male ob/ob mice; [3]) was 51.6 ± 14.2 mg/dL. It also gave an ALT (Male ob/ob mice; [4]) of 41.6 ± 10.1 U/L, an AST (Male ob/ob mice; [4]) of 77.7 ± 13.1 U/L and a TC (Male ob/ob mice; [4]) of 136.8 ± 6.1 mg/dL. The TG (Male ob/ob mice; [4]) was 46.9 ± 12.9 mg/dL, the “induction of conditioned taste aversion (emetic effects)” value (Male C57BL/6J mice) was “did not induce CTA” and the “Saccharin preference ratio (%)” value (Male C57BL/6J mice; two conditionings, mean ± SD) was 76.8 ± 9.5%.
